Laboratory results from US8252832B2, “Kinesin inhibitors as cancer therapeutics” (Novartis AG, priority 2007, dated 2012).
Like-named read-outs stand apart in the source and are kept apart here.

Columns and labels:
Experiment in all cases: CellTiter-Glo, hematologic malignancy panel
Type in all cases: cell-based
[1] = tested on: H929-Luc; details: MM
Text: (§1) Identification of tumor types that are the most sensitive to the KSP inhibitors of the present invention can be accomplished using an unbiased approach that uses several cell-based assays. The assays chosen were as follows: • CellTiter-Glo®. This is an assay designed to measure ATP concentration in a cell culture, and can be correlated to cell number. Briefly CellTiter-Glo® (Promega Corporation) is a homogeneous method using the single CellTiter-Glo® reagent to detect ATP wherein ATP in the assay drives the activity of a thermostable luciferase to create a luminescent signal which can then be measured and correlated with the number of viable cells. Briefly, for adherent cells, 1,000 to 5,000 cells/well were plated in 96-well plates (100 μl/well) and let to adhere for 24 hours before being treated with drug. For non-adherent cells, 1,000 to 10,000 cells/well were plated in 96-well plates (100 μl/well) and immediately treated with drug. Drug dilutions were prepared in DMSO at 1000 times the final concentration. These dilutions were then diluted 1/100 in growth media before being added to the cells (11 μl/well) to achieve the desired final concentration. After 48 h in a 37° C. tissue culture incubator, the plates were processed for the CellTiter-Glo®assay according to the manufacturer's instructions. Protocol for a 72 hour cell proliferation assay: The 72 hour assay was performed the same way as the 48 hour assay except for the following modifications: For adherent cells, 500 to 5,000 cells/well were plated in 96-well plates (90 μl/well cell growth media) and left to adhere for 24 hours before being treated with drug. For non-adherent cells, 1,000 to 10,000 cells/well were plated in 96-well plates (90 μl/well cell growth media) and immediately treated with drug. Data values presented represent the concentration of test compound required for a 50% reduction in growth. • LDH release. The Cytotoxicity Detection KitPLUS (LDH) assay (Roche Diagnostics, Manheim, Germany) measures the amount of LDH released in the media by dying cells; LDH catalyzes the conversion of lactate into pyruvate. The enzymatic reaction is coupled to a chemical reaction that uses a tetrazolium salt to form a formazan that is red and can be detected by its absorbance at 490 nm. This assay measures the amount of cell death after drug treatment. Cells were plated at 10,000 cells/well in 96-well plates (100 μl/well). Adherent cells were let to adhere for 24 hours before being treated with drug, whereas non-adherent cells were immediately treated with drug. Drug dilutions were prepared in DMSO at 1000 times the final concentration. These dilutions were then diluted 1/100 in growth media before being added to the cells (11 μl/well) to achieve the desired final concentration. After 48 h in a 37° C. tissue culture incubator, the plates were processed for the Cytotoxicity Detection KitPLUS (LDH) assay according to the manufacturer's instructions. The media only values were subtracted from all the data points before analysis. Data values presented correspond to the compound concentration wherein LDH output is at half maximal level. • Caspase-Glo® 3/7. The Caspase-Glo® 3/7 Assay (Promega Corporation) is a homogeneous luminescent assay that measures caspase-3/7 activities. The assay provides a proluminescent caspase-3/7 DEVD-aminoluciferin substrate and a thermostable luciferase in a reagent optimized for caspase-3/7 activity, luciferase activity and cell lysis. Adding the single Caspase-Glo® 3/7 Reagent results in cell lysis, followed by caspase cleavage of the substrate. This liberates free aminoluciferin, which is consumed by the luciferase, generating a luminescent signal. The signal is proportional to caspase-3/7 activity. Data values presented correspond to the compound concentration wherein caspase 3/7 activity is at half maximal level. […]

[2] = tested on: HEL92; details: AML
Text: as §1

[3] = tested on: KM-H2; details: HL; for GI50: Homo sapiens
Text: as §1

[4] = tested on: KMS26; details: for GI50: KMS-26, MM
Text: as §1

[5] = tested on: Karpas-299-Luc; details: NHL
Text: as §1

[6] = tested on: Kasumi-1; details: AML; for GI50: Homo sapiens
Text: as §1

[7] = tested on: L428; details: for GI50: Homo sapiens, L-428, HL
Text: as §1

[8] = tested on: LP1; details: for GI50: Homo sapiens, LP-1, MM
Text: as §1

[9] = tested on: MOLM13-Luc; details: AML
Text: as §1

[10] = tested on: RS4; 11; details: ALL; for GI50: Homo sapiens
Text: as §1

[11] = tested on: SET-2; details: AML; for GI50: Homo sapiens
Text: as §1

[12] = tested on: SR; details: NHL; for GI50: Homo sapiens
Text: as §1

[13] = GI50 in nM, read-out: Log(GI50) (converted)

Q: CC(C)(C)[C@H](c1nc(-c2cc(F)ccc2F)cn1Cc1ccccc1)N(CC[C@H](N)CF)C(=O)CO [Compound IIa] was tested. Which “Differential vs mean Log(GI50)” value [1] did it give?
A: −0.697

Q: And the GI50 [1, 13]?
A: 1.69 nM

Q: What about the GI50 ([1]; read-out: GI50) of the same molecule?
A: 1.69 nM

Q: What about the “Differential vs mean Log(GI50)” value [2] of the same molecule?
A: −0.160

Q: What about the GI50 [2, 13] of the same molecule?
A: 0.49 nM

Q: And the GI50 ([2]; read-out: GI50)?
A: 0.49 nM

Q: What about the “Differential vs mean Log(GI50)” value [3] of the same molecule?
A: 0.162

Q: And the GI50 [3, 13]?
A: 0.233 nM

Q: And the GI50 ([3]; read-out: GI50)?
A: 0.23 nM

Q: And the GI50 [4, 13]?
A: 0.24 nM

Q: What about the GI50 ([4]; read-out: GI50) of the same molecule?
A: 0.24 nM

Q: And the “Differential vs mean Log(GI50)” value ([4]; MM)?
A: 0.150

Q: What about the “Differential vs mean Log(GI50)” value [5] of the same molecule?
A: −1.775

Q: And the GI50 [5, 13]?
A: 20.2 nM

Q: And the GI50 ([5]; read-out: GI50)?
A: 20.2 nM

Q: What about the “Differential vs mean Log(GI50)” value [6] of the same molecule?
A: −0.113

Q: And the GI50 [6, 13]?
A: 0.44 nM

Q: What about the GI50 ([6]; read-out: GI50) of the same molecule?
A: 0.44 nM

Q: What about the “Differential vs mean Log(GI50)” value ([7]; HL) of the same molecule?
A: −1.771

Q: What about the GI50 [7, 13] of the same molecule?
A: 20 nM

Q: What about the GI50 ([7]; read-out: GI50) of the same molecule?
A: 20 nM

Q: What about the GI50 [8, 13] of the same molecule?
A: 0.205 nM

Q: What about the GI50 ([8]; read-out: GI50) of the same molecule?
A: 0.21 nM

Q: And the “Differential vs mean Log(GI50)” value ([8]; MM)?
A: 0.218

Q: And the “Differential vs mean Log(GI50)” value [9]?
A: 0.175

Q: What about the GI50 [9, 13] of the same molecule?
A: 0.226 nM

Q: And the GI50 ([9]; read-out: GI50)?
A: 0.23 nM

Q: And the “Differential vs mean Log(GI50)” value [10]?
A: 0.530

Q: What about the GI50 [10, 13] of the same molecule?
A: 0.1 nM

Q: What about the GI50 ([10]; read-out: GI50) of the same molecule?
A: 0.1 nM

Q: And the “Differential vs mean Log(GI50)” value [11]?
A: −0.001

Q: And the GI50 [11, 13]?
A: 0.34 nM

Q: And the GI50 ([11]; read-out: GI50)?
A: 0.34 nM

Q: And the GI50 [12, 13]?
A: 0.11 nM

Q: What about the GI50 ([12]; read-out: GI50) of the same molecule?
A: 0.11 nM

Q: What about the “Differential vs mean Log(GI50)” value [12] of the same molecule?
A: 0.487
